Twelve compounds from patent US20150111933A1, “Deuterated Thiazolidinone Analogues as Agonists for Follicle Stimulating Hormone Receptor” (Merck Patent GmbH, priority 2012, published 2015) can be followed below.

In one data set the target is T1, FSHR (Homo sapiens, UniProt P23945).
T1 construct: expressed in transfected cells; host or cells: CHO (Cho-FSHR-LUC-1-1-43)
T1 sequence (P23945 18-695): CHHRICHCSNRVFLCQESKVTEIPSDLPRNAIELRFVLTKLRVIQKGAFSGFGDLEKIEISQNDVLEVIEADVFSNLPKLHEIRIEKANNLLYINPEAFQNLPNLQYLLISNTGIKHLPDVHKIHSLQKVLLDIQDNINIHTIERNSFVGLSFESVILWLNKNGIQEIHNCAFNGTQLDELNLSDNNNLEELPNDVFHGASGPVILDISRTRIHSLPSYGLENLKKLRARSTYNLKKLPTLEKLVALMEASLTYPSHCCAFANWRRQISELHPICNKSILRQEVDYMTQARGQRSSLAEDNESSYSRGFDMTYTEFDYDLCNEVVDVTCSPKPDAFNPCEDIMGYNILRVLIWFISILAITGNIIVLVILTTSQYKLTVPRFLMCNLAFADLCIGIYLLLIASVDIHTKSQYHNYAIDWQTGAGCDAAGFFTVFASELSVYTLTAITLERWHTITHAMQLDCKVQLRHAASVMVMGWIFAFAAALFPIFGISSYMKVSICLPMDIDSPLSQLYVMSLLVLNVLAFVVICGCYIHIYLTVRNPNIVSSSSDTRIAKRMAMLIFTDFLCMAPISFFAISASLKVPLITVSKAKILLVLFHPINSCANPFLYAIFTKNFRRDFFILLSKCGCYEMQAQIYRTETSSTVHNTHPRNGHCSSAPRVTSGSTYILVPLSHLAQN
Put plainly: EC50 of cyclic AMP production in CHO FSHR cells + EC20 FSH (HTRF). Format: cell-based. The following applies: Cho-FSHR-LUC-1-1-43 cells; for Emax: 1 h, read-out: EC50 of cAMP production (% effect); for EC50: + EC20 FSH (0.265 pM), 200 μM IBMX, 1 h at 37° C., read-out: EC50 of cAMP production. As for the experimental part:
EC50 of Cyclic AMP Production in CHO FSHR Cells+EC20 FSH
2500 Cho-FSHR-LUC-1-1-43 cells were plated per well in 5 μL of phenol red free DMEM/F12+1% FBS. Cells were plated in 384 well, solid white low volume plates (Greiner 784075) by Multidrop. Cells were assayed by adding […] of 2×EC20 FSH/IBMX in DMEM/F12+0.1% BSA) by Multidrop to 2 μL of test compound stamped in 384 well plates (compounds are diluted 1:50). The final FSH concentration was 0.265 pM, and the final IBMX concentration was 200 μM. The compound plate map was as follows: Column 1: 2 μL of DMSO; Column 2: 2 μL of DMSO; Columns 3-12 and 13-24: 2 μL of test compound, diluted 1:4 in 100% DMSO, or 2 μL of FSH, diluted 1:4 in DMEM/F12+0.1% BSA. The starting concentration for FSH was 50 nM (final concentration was 0.5 nM). Furthermore, Column 23 contained 2 μL of EC100 FSH reference (100×) (diluted in DMEM/F12+0.1% BSA) at a final concentration of 0.5 nM, and Column 24 contained 2 μL of 1 mM AS707664/2 reference compound 2. 5 μL of compound+EC20 FSH mixture were transferred to cell plates (1:2 dilution into 5 μL of cell media) The plates were incubated at 37° C. for 1 h. 10 μL of mixed HTRF (CisBio #62AM4PEC) reagents were added per well and incubated at room temperature for 1 h. The plates were read on Envision using the cAMP HTRF—low volume 384 well protocol. The readout was the calculated fluorescence ratio (665 nm/620 nm).
For orientation: In TR-FRET formats the signal depends on donor and acceptor labels being close together.

Data set [1] can be described thus: Intrinsic clearance (Clint) in human liver microsomes. Format: in vitro ADME. Particulars: 0.5 mg/mL protein, NADPH, up to 30 min, first value of human/rat; for microsomal CLint at 0.8 μM: human, liver microsomes, pH 7.4, human liver microsomes. As for the experimental part: (§1) Intrinsic Clearance (Clint) Assay Protocol:
(§2) A Tecan Genesis workstation (RSP 150/8) was used for to perform the microsomal incubations. Analysis was carried out using a Waters ACQUITY UPLC system coupled to an ABSciex API3000 mass spectrometer. Data analysis was performed using Assay Explorer (Symyx).
(§3) 0.1 M potassium phosphate buffer pH 7.4 containing 1 mM MgCl2 15 mM NADPH in phosphate buffer 4.4 mg protein/mL liver microsomes in phosphate buffer acetonitrile 20% DMSO in water
(§4) Each experiment consists of 12 test and 2 reference compounds. The reference compounds are incubated as a cocktail. Dilution of test compounds was done in 2 steps from a 10 mM DMSO stock solution. First 4 μL stock solution was added to 196 μL of 20% DMSO in potassium phosphate buffer pH 7.4. In a second step 10 μL of the first dilution were added to […] potassium phosphate buffer and 100 μL internal standard solution to a final concentration of 0.8 μM. 100 μL of the final compound dilution were aliquoted into a 96 deep well plate. 12.5 μL liver microsomes were added to each well (0.5 mg/mL final protein concentration) and the samples preincubated for 5 min at 37° C. and 800 rpm agitation.
(§5) After the preincubation, 250 μL cold acetonitrile were added to the 0 min samples to prevent a reaction. Following this, 12.5 μL NADPH solution were added to all wells to start the incubation, with the exception of the 0 min and 30 min controls without cofactor, where the NADPH was substituted for phosphate buffer.
(§6) The incubations were stopped after 5, 10, 20 and 30 min by adding 250 μL cold acetonitrile to the individual wells.
(§7) The quenched samples were then centrifuged at 4000 g for 1 h at 4° C. 100 μL of the supernatant were transferred into 96 well plates for analysis.
(§8) The metabolic stability of each compound was determined by measurement of the change in LC-MS/MS peak area over time. Assay Explorer software was used to automatically calculate the slope k of the decline. The intrinsic clearance (Clint) of each compound was then calculated according to the formula:
(§9) Clint (μL/min/mg protein)=k1000/protein concentration.
(Liver microsomes are a subcellular fraction often used to study metabolism.)

A short description of data set [2]: Intrinsic clearance (Clint) in rat liver microsomes. The class given is in vitro ADME. The following applies: rat, liver microsomes, pH 7.4, rat liver microsomes, 0.5 mg/mL protein, NADPH, up to 30 min; second value of human/rat. As for the experimental part:
as §1, §2, §3, §4, §5, §6, §7, §8, §9

Setting [3] is: + EC20 FSH, % effect in brackets.

Usually EC50 stands for the concentration that produces a half-maximal response. By microsomal CLint is commonly meant the rate of metabolic loss divided by the concentration. With `[2H]c1c([2H])c([2H])c(C#Cc2ccc([C@@H]3S[C@H](CC(=O)NC([2H])([2H])C([2H])([2H])c4ccc(OC)c(OCC)c4)C(=O)N3c3cccc(C(N)=O)c3)cc2)c([2H])c1[2H]` (single isomer, unassigned) [Compound 9], on FSHR (setting [3]), the Emax amounted to 97%. In addition, the EC50 at FSHR is 0.3 nM. The results for the microsomal CLint at 0.8 μM in data set [1] and in data set [2] were 181 µL/min/mg and 31 µL/min/mg, respectively.

On to `[2H]c1c([2H])c([2H])c(C#Cc2ccc([C@@H]3S[C@H](CC(=O)NC([2H])([2H])C([2H])([2H])c4ccc(OC([2H])([2H])[2H])c(OCC)c4)C(=O)N3c3cccc(C(N)=O)c3)cc2)c([2H])c1[2H]` (single isomer, unassigned) [Compound 10], for which the Emax on FSHR (setting [3]) was determined as 98%. Also, the EC50 on FSHR was 0.3 nM. The microsomal CLint at 0.8 μM in data set [1] turned out to be 161 µL/min/mg; in data set [2] it was 23 µL/min/mg.

For the compound `[2H]C([2H])(NC(=O)C[C@H]1S[C@@H](c2ccc(C#Cc3ccccc3)cc2)N(c2cccc(C(N)=O)c2)C1=O)C([2H])([2H])c1ccc(OC)c(OCC)c1` (single isomer, unassigned) [Compound 4], the Emax on FSHR (setting [3]) is 99%. Moreover, the EC50 at FSHR stood at 0.7 nM. Further, in data set [1] (human liver microsomes), the “Clint (human)” value was 191 μL/min/mg protein. In addition, the intrinsic metabolic clearance (microsomal CLint) at 0.8 μM in data set [2] amounted to 51 µL/min/mg.

As to `[2H]C([2H])([2H])Oc1ccc(C([2H])([2H])C([2H])([2H])NC(=O)C[C@H]2S[C@@H](c3ccc(C#Cc4ccccc4)cc3)N(c3cccc(C(N)=O)c3)C2=O)cc1OC` [Compound 3, 3-((2S,5R)-4-oxo-5-(2-oxo-2-((1,1,2,2-d4-2-(3-methoxy-4-(methoxy-d3)phenyl)ethyl)amino)ethyl)-2-(4-(phenylethynyl)phenyl)thiazolidin-3-yl)benzamide], at FSHR (setting [3]), the Emax worked out at 97%. The EC50 at FSHR came to 1.7 nM. The microsomal CLint at 0.8 μM in data set [1] is 111 µL/min/mg; in data set [2] it was 29 µL/min/mg.

Take `[2H]c1c([2H])c([2H])c(C#Cc2ccc([C@@H]3S[C@H](CC(=O)NC([2H])([2H])C([2H])([2H])c4ccc(O)c(OC)c4)C(=O)N3c3cccc(C(N)=O)c3)cc2)c([2H])c1[2H]` (single isomer, unassigned) [Compound 11]: at FSHR (setting [3]), the Emax amounted to 99%. In addition, the EC50 at FSHR came out at 335 nM.

`[2H]c1c([2H])c([C@@H]2S[C@H](CC(=O)NC([2H])([2H])C([2H])([2H])c3ccc(OC([2H])([2H])[2H])c(OCC)c3)C(=O)N2c2cccc(C(N)=O)c2)c([2H])c([2H])c1C#Cc1ccccc1` (single isomer, unassigned) [Compound 16]: the Emax on FSHR (setting [3]) was determined as 100%. Also, the EC50 at FSHR stood at 0.7 nM.

As to `CCOc1cc(CCNC(=O)C[C@H]2S[C@@H](c3ccc(C#Cc4ccccc4)cc3)N(c3cccc(C(N)=O)c3)C2=O)ccc1OC` [Reference compound, reference compound], the Emax on FSHR (setting [3]) was determined as 98%. Also, at FSHR, the EC50 stood at 0.3 nM. The microsomal CLint at 0.8 μM in data set [1] was 182 µL/min/mg; in data set [2], 120 µL/min/mg.

As for `[2H]c1c([2H])c([2H])c(C#Cc2c([2H])c([2H])c([C@H]3N(c4cccc(C(N)=O)c4)C(=O)[C@@H](CC(=O)NC([2H])([2H])C([2H])([2H])c4ccc(OC([2H])([2H])[2H])c(OC([2H])([2H])[2H])c4)[S@@+]3[O-])c([2H])c2[2H])c([2H])c1[2H]` (single isomer, unassigned) [Compound 21], the Emax at FSHR (setting [3]) worked out at 103%. The EC50 at FSHR was found to be 113 nM. The intrinsic clearance (microsomal CLint) at 0.8 μM was 351 µL/min/mg in data set [1] and 241 µL/min/mg in data set [2].

Take `[2H]c1c([2H])c([2H])c(C#Cc2ccc([C@@H]3S[C@H](CC(=O)NC([2H])([2H])C([2H])([2H])c4ccc(OC([2H])([2H])[2H])c(OC)c4)C(=O)N3c3cccc(C(N)=O)c3)cc2)c([2H])c1[2H]` [Compound 13, 3-((2S,5R)-4-oxo-5-(2-oxo-2-((1,1,2,2-d4-2-(3-ethoxy-4-methox-d3-yphenyl)ethyl)amino)ethyl)-2-(4-((phenyl-d5)ethynyl)phenyl)thiazolidin-3-yl)benzamide]: on FSHR (setting [3]), the Emax amounted to 97%. For the same compound, the EC50 on FSHR was 1.3 nM.

Take `[2H]c1c([2H])c([C@@H]2S[C@H](CC(=O)NC([2H])([2H])C([2H])([2H])c3ccc(OC([2H])([2H])[2H])c(OC([2H])([2H])[2H])c3)C(=O)N2c2cccc(C(N)=O)c2)c([2H])c([2H])c1C#Cc1ccccc1` [Compound 17, 3-((2S,5R)-4-oxo-5-(2-oxo-2-((1,1,2,2-d4-2-(3,4-dimethoxy-d6-phenyl)ethyl)amino)ethyl)-2-(2,3,5,6-d4-4-(phenylethynyl)phenyl-d5)thiazolidin-3-yl)benzamide]: the Emax on FSHR (setting [3]) worked out at 100%. Further, on FSHR, the EC50 was 0.9 nM.

On to “3-((2S,5R)-4-oxo-5-(2-oxo-2-((1,1,2,2-d4-2-(3-ethoxy-4-methoxy-d3-phenyl)ethyl)amino)ethyl)-2-(2,3,5,6-d4-4-(phenylethynyl)phenyl)thiazolidin-3-yl)benzamide [Compound 15]”, for which, at FSHR, the EC50 is 0.6 nM. Moreover, on FSHR (setting [3]), the “EC50 of cAMP production (% effect)” value is recorded as “(99) %”.

On to `[2H]c1c([2H])c([2H])c(C#Cc2ccc([C@@H]3S[C@H](CC(=O)NCCc4ccc(O)c(O)c4)C(=O)N3c3cccc(C(N)=O)c3)cc2)c([2H])c1[2H]` [Compound 12, 3-((2S,5R)-5-(2-((3,4-dihydroxyphenethyl)amino)-2-oxoethyl)-4-oxo-2-(4-((2,3,4,5,6-phenyl-d5)ethynyl)phenyl)thiazolidin-3-yl)benzamide], for which, on FSHR (setting [3]), the Emax is 99%. At FSHR, the EC50 came out at 220 nM.
